Patent US20140256693A1, “PYRROLO [1,2-C] IMIDAZOLE DERIVATIVES FOR USE IN THE PROPHYLAXIS OR TREATMENT OF CANCER WHICH IS REFRACTORY TO KNOWN CANCER THERAPIES” (TAKEDA PHARMACEUTICAL COMPANY LIMITED, priority 2007, published 2014)

Test system: castrated male cynomolguses
Experiment: Serum DHEA and testosterone in castrated male cynomolguses after repeated oral administration (RIA)
Assay type: in vivo
Conditions: castrated male cynomolgus, 7.5 or 15 mg/kg/dose oral, twice a day for one week
Procedure: (+)-6-(7-Hydroxy-6,7-dihydro-5H-pyrrolo[1,2-c]imidazol-7-yl)-N-methyl-2-naphthamide was used as a test compound belonging to compound (I′). For oral administration, the test compound was weighed and placed in a mortar, 0.5% methylcellulose solution was added thereto, and the mixture was sufficiently admixed with a pestle to give a suspension.
6 to 12-year-old castrated male cynomolguses were divided into two groups (7.5 mg/kg/time test compound administration group and 15 mg/kg/time test compound administration group) each including 3 cynomolguses such that blood DHEA concentration would be impartial. The test compound was repeatedly administered orally twice a day (bid) for one week. Blood samples were collected twice a day from 3 days prior to the administration through the final day of administration. Vehicle (0.5% methylcellulose) was administered about one month after the completion of administration, and blood samples were collected according to the same schedule. Serum DHEA and serum testosterone concentrations were measured by RIA (radioimmunoassay).
The serum DHEA concentrations of the test compound administration group are shown in FIG. 1, and the serum DHEA concentrations of the vehicle administration group where vehicle was administered about a month after completion of the administration of the test compound are shown in FIG. 2. […]

`CNC(=O)c1ccc2cc(C3(O)CCn4cncc43)ccc2c1` (single isomer, unassigned; (+)) [test compound, (+)-6-(7-Hydroxy-6,7-dihydro-5H-pyrrolo[1,2-c]imidazol-7-yl)-N-methyl-2-naphthamide] was tested, and the “serum DHEA concentration” value (FIG. 1, maintained at low levels during the administration period) was “decreased” and the serum testosterone concentration (FIG. 3, maintained at low levels during the administration period) was “decreased”.
